Like-named read-outs stand apart in the source and are kept apart here.
Tests used:
[1] = In vitro flags for victim and perpetrator properties conferring DDI liability; format: in vitro ADME, human; conditions: in vitro flag, mainly based on in vitro determinations
[2] = biological target: CYP3A4 (Homo sapiens, UniProt P08684)
Description: (§1) In nearly all cases the fraction of systemic elimination metabolised by a given enzyme (fm) determined in vitro was unavailable in the literature.

[3] = biological target: T1, UGT1A1 (Homo sapiens, UniProt P22309); assay: Metabolism by UGT1A1; format: in vitro ADME
T1 sequence (P22309 26-533): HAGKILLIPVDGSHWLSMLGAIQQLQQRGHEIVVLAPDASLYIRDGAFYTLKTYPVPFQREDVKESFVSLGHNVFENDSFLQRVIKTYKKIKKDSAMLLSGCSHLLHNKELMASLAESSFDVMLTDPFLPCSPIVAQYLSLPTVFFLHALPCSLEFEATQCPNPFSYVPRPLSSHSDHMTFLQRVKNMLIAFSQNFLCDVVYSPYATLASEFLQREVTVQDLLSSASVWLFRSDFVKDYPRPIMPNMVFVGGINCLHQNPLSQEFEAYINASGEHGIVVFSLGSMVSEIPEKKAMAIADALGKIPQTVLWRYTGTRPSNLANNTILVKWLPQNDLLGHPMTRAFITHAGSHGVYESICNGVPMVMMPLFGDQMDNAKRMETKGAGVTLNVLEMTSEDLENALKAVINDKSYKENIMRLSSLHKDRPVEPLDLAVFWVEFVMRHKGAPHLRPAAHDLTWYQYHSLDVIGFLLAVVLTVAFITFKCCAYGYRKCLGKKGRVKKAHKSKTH
Description: as §1

[4] = in vitro; conditions: human, Caco-2
[5] = ref McCarthy et al., 2020 47, cited from earlier work; for AUC Obs: 0-inf
[6] = clinically observed oral (in vivo) clearance; pyronaridine: blood; ref amodiaquine Winstanley et al., 1987 9; DEAQ Akande et al., 2015 8, Scarsi et al., 2014 35, Tarning et al., 2012 36, Orrell et al., 2008 37; DHA Na-Bangchang et al., 2004 42; lumefantrine Lefevre et al., 2002 52, Hoglund et al., 2015 53; mefloquine Charles et al., 2007 56; proguanil Jeppesen et al., 1997 34; pyronaridine Jittama; cited from earlier work
[7] = Blood to plasma ratio (B:P); conditions: PBPK input; unpublished (in-house) data
[8] = In vivo clearance (CL IV, CL PO, CL renal, fe); conditions: rat, after IV dose
[9] = Fraction unbound in plasma (fu), main binding protein; conditions: PBPK input; unpublished (in-house) data

Chain of CYP3A4 (P08684 whole entry): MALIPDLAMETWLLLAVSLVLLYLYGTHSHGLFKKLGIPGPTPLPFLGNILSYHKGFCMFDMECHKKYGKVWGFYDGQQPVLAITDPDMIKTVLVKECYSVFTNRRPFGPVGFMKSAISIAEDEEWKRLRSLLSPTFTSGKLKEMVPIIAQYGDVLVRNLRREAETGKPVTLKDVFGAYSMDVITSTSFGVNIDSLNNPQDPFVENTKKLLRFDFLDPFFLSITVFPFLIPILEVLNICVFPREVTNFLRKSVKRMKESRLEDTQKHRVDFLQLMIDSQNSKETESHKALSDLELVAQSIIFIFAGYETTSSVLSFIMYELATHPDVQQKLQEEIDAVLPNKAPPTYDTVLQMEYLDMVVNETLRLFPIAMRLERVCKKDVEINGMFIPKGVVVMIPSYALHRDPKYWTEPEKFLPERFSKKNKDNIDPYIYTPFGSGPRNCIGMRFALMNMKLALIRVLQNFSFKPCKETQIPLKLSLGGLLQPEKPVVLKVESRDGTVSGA

fmCYP3A4 [2]: 10%
CLint CYP3A4 ([2]; microsomes): 0.13 µL/min/pmol
CLint UGT1A1 ([3]; Derived from CL PO using retrograde calculations): 1.13 µL/min/pmol
fm UGT1A1 ([3]; allocation of clearance, based on in vitro data): 90%
fm by UGT1A1 ([3]; fraction metabolized): 0.9
Papp A→B [4]: 44 ×10⁻⁶ cm/s
B:P [7]: 0.9
dose recovered in urine [8]: 0.2 % of dose
fu [9]: 0.145
SMILES: CS(=O)(=O)c1ccc(-c2cnc(N)c(-c3ccc(C(F)(F)F)nc3)c2)cc1 [MMV048]
Risk as a perpetrator [1]: No risk has been identified as a perpetrator
AUC Obs ([5]; 40 mg SD): 30320 ng·h/mL
Cmax Obs ([5]; 40 mg SD): 272.7 ng/mL
AUC Obs ([5]; 80 mg SD): 82680 ng·h/mL
Cmax Obs ([5]; 80 mg SD): 561.0 ng/mL
AUC Obs ([5]; 120 mg SD): 137800 ng·h/mL
Cmax Obs ([5]; 120 mg SD): 1094.0 ng/mL
CL PO [6]: 0.82 L/h

From publication PMC10508484, “Development and application of a PBPK modeling strategy to support antimalarial drug development” (CPT: Pharmacometrics & Systems Pharmacology, 2023)
